We go through 14 molecules from article PMC11901911, “Diverse Structures of Tea Polyphenols from Rougui Wuyi Rock Tea and Their Potential as Inhibitor of 3C-like Protease” (Molecules, 2025).

Assay [1] deals with T1, SARS-CoV-2 3CLpro (Severe acute respiratory syndrome coronavirus 2, UniProt P0DTD1).
T1 construct: The kit contains assay buffer (125 mL, blank control), 2019-nCoV-2 3CLpro (500 μL), substrate (1 mL); purchased Beyotime Biotechnology (Shanghai, China) P0312M
In words: biochemical. The settings on record: for IC50: FRET assay, serial dilution, read-out: IC50 against SARS-CoV-2 3CLpro; for inhibition at 100 µM: compound concentration 100 μM; for inhibition at 100 µM / inhibition at 10 µM: read-out: Inhibition rate (%) against 3CLpro; for inhibition at 10 µM: compound concentration 10 μM.

The target in assay [2] is T1, SARS-CoV-2 3CLpro. Also noted: method as in PMID 32963564. The settings on record: in vitro; read-out: IC50 on SARS-CoV-2 3CLpro protein activity; cited from earlier work.

Read-outs that look alike come from different tables or passages of the source.

With `COc1cc(C(=O)O[C@@H]2Cc3c(O)cc(O)cc3O[C@@H]2c2cc(O)c(O)c(O)c2-c2c([C@H]3Oc4cc(O)cc(O)c4C[C@H]3O)cc(O)c(O)c2O)cc(O)c1O` [Compound 20, Epigallocatechin-(2′→2′)-epigallocatechin-3-(3″-O-methyl)-gallate], at SARS-CoV-2 3CLpro [1], the IC50 was found to be 42.1 µM and the inhibition at 100 µM was greater than 50%.

`C[C@@H]1O[C@@H](OC[C@H]2O[C@@H](Oc3c(-c4ccc(O)cc4)oc4cc(O)cc(O)c4c3=O)[C@H](OC(=O)/C=C\c3ccc(O)cc3)[C@@H](O)[C@H]2O)[C@H](O)[C@H](O[C@@H]2O[C@H](CO)[C@@H](O)[C@H](O)[C@H]2O)[C@H]1O` [Compound 32, Kaempferol-3-O-[2″-O-(Z)-p-coumaroyl] [β-D-glucopyranosyl-(1→3)-O-α-L-rhamnopyranosyl-(1→6)]-β-D-galactopyranoside]: on SARS-CoV-2 3CLpro [1], the IC50 turned out to be 61.1 µM and the inhibition at 100 µM was greater than 50%.

Turning to `Oc1cc(O)c2c(c1)O[C@H](c1ccc(O)c(O)c1)[C@H](O)C2` [Compound 1, (−)-epicatechin], at SARS-CoV-2 3CLpro [1], the inhibition at 100 µM is greater than 50%.

For `CCN1C(=O)CC[C@H]1c1c(O)cc2c(c1O)C[C@@H](O)[C@@H](c1cc(O)c(O)c(O)c1)O2` [Compound 12, 6-(5″S)-N-ethyl-2-pyrrolidinone-epigallocatechin], at SARS-CoV-2 3CLpro [1], the IC50 came to 26.8 ± 0.9 µM and the inhibition at 100 µM was greater than 50%.

Turning to `O=C(O[C@@H]1Cc2c(O)cc(O)cc2O[C@@H]1c1cc(O)c(O)c(O)c1-c1c([C@H]2Oc3cc(O)cc(O)c3C[C@H]2OC(=O)c2cc(O)c(O)c(O)c2)cc(O)c(O)c1O)c1cc(O)c(O)c(O)c1` [Compound 21, theasinensin A], at SARS-CoV-2 3CLpro [1], the inhibition at 100 µM is greater than 50%.

With `CCN1C(=O)CC[C@H]1c1c(O)cc(O)c2c1O[C@H](c1cc(O)c(O)c(O)c1)[C@H](O)C2` [Compound 14, puerin V], on SARS-CoV-2 3CLpro [1], the IC50 came to 14.9 ± 1.4 µM and the inhibition at 100 µM is greater than 50%.

Turning to `CCN1C(=O)CC[C@@H]1c1c(O)cc(O)c2c1O[C@H](c1cc(O)c(O)c(O)c1)[C@H](O)C2` [Compound 15, puerin VI], at SARS-CoV-2 3CLpro [1], the concentration for half-maximal inhibition (IC50) was found to be 14.5 ± 1.1 µM and the inhibition at 100 µM was greater than 50%.

`Oc1cc(O)c2c(c1)O[C@H](c1cc(O)c(O)c(O)c1)[C@H](O)C2` [Compound 4, (−)-epigallocatechin]: at SARS-CoV-2 3CLpro [1], the IC50 was found to be 12 ± 1.9 µM and the inhibition at 10 µM was greater than 50%.

On to `O=C(O[C@H]1Cc2c(O)cc(O)cc2O[C@@H]1c1cc(O)c(O)c(O)c1)c1cc(O)c(O)c(O)c1` [Compound 9, (−)-gallocatechin-3-O-gallate], for which the inhibition at 10 µM on SARS-CoV-2 3CLpro [1] was greater than 50%.

With `O=C(O[C@@H]1Cc2c(O)cc(O)cc2O[C@@H]1c1cc(O)c(O)c(O)c1)c1cc(O)c(O)c(O)c1` [Compound 5, (−)-epigallocatechin-3-O-gallate], the inhibition at 10 µM at SARS-CoV-2 3CLpro [1] was greater than 50%.

Regarding `COc1cc(C(=O)O[C@@H]2Cc3c(O)cc(O)cc3O[C@@H]2c2cc(O)c(O)c(O)c2)cc(O)c1O` [Compound 6, (−)-epigallocatechin-3-(3′-O-methyl)-gallate], on SARS-CoV-2 3CLpro [1], the IC50 was 9.8 ± 0.4 µM and the inhibition at 10 µM is greater than 50%.

In the case of `CCN1C(=O)CC[C@@H]1c1c(O)cc2c(c1O)C[C@@H](O)[C@@H](c1cc(O)c(O)c(O)c1)O2` [Compound 11, 6-(5″R)-N-ethyl-2-pyrrolidinone-epigallocatechin], on SARS-CoV-2 3CLpro [1], the IC50 amounted to 22.4 ± 5.8 µM and the inhibition at 100 µM was greater than 50%.

`O=c1c(O)cc([C@H]2Oc3cc(O)cc(O)c3C[C@H]2O)cc2c([C@H]3Oc4cc(O)cc(O)c4C[C@H]3O)cc(O)c(O)c12` [theaflavin]: the IC50 at SARS-CoV-2 3CLpro [2] is 15 µM.

Turning to `O=C(O[C@@H]1Cc2c(O)cc(O)cc2O[C@@H]1c1ccc(O)cc1)c1cc(O)c(O)c(O)c1` [Compound 7, (−)-epiafzelechin-3-O-gallate], the inhibition at 100 µM at SARS-CoV-2 3CLpro [1] was greater than 50%.
